Assays:
human PRDX5 [1] = target: T1, human PRDX5 (Homo sapiens, UniProt P30044); assay: NMR screening: STD factor (f STD) of fragments with PRDX5; assay type: binding; conditions: for f STD: F152 compared with D3; for STD factor (f STD): Figure 2, relative degree of saturation normalized to that of F090
T1 construct: 6xHis (N); made in house; host or cells: E. coli strain M15 (pRep4)
T1 sequence (P30044 53-214): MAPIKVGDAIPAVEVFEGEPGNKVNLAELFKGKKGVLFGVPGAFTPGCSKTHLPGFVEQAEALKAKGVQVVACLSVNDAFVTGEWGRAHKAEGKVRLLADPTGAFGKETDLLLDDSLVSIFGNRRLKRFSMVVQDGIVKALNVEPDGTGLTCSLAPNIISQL
Protocol: All spectra were acquired at 20°C with a Varian Inova 600 MHz NMR spectrometer, equipped with a standard 5 mm triple-resonance inverse probe with a z-axis field gradient, actively shielded, and with an autosampler robot. The NMR samples were prepared with a robot TECAN Miniprep 60. For 175 fragments, 32 NMR tubes were prepared with 20 µM of the reduced protein and 600 µM fragments. For 25 fragments (6 NMR samples) that were not soluble at 600 µM in water, the final concentration in the NMR tube was set to 200 µM. All samples contained 1 mM DTT. […] Control 1D ^1H spectra preceded all experiments to assess the purity and stability of the fragments. NMR screening was achieved using 1D STD [30] and Waterlogsy experiments. The parameters used were the same as previously described. All NMR spectra were processed with the Varian VnmrJ software.
(§1) KD values were determined by fitting the plot of [L]tot vs. f STD as previously published.

human PRDX5 [2] = target: T1, human PRDX5; assay: KD measurements by STD factor variation upon titration; assay type: binding
Protocol: as §1

[3] = Solubility in water / in the assay; assay type: physicochemical; conditions: for solubility in the assay: thioredoxin peroxidase inhibition assay; for solubility in water: for KD measurement by STD titration
Description: We previously designed a small generalist library of 60 fragments and used it to elaborate an inhibitor of the Creatine kinase protein [27], based on the identification of an initial fragment by NMR screening. Here, the library was enlarged and contains 200 fragments that correspond to small commercial compounds with physicochemical properties defined by the rule of three. The 140 newly added fragments were chosen so as to enhance the diversity of the library in terms of size, shape and chemical functionalities. […] Waterlogsy experiments were recorded to detect possible aggregation as LOGSY effects are characteristic of high molecular weight compounds in water. When the molecules were not soluble at 600 µM, solutions were tested at 200 µM. If not soluble, the molecules were rejected from the selection. Then, to optimize the experimental time and to reduce the protein quantity required for the NMR screening experiments, fragments were pulled into mixtures of 3 to 6 molecules with minimum spectral overlap. NMR spectra of the mixtures were recorded after 3 months to confirm the absence of degradation of the compounds.
The compounds of the library were chosen from Aldrich or Acros online catalogs with SHAPES-like criteria [40]–[42] and had to fit the rule of three. Aqueous solubility was checked for all compounds by recording ^1H 1D NMR spectrum and Waterlogsy spectrum, [43]. 110 mM stock solutions of the library compounds were prepared in DMSO-d 6 and conserved at −20°C. ^1H 1D NMR spectrum were recorded to check that no degradation occurs over 3 months. Compounds were mixed by 3 to 6 to decrease the NMR experimental time as well as the protein quantity. Criteria for the compound selection for the mixtures were the absence of overlapping resonances in the 1D NMR spectra. The library contained 200 validated fragments.

human PRDX5 [4] = target: T1, human PRDX5; assay: Thioredoxin peroxidase activity inhibition assay; assay type: biochemical; conditions: 0–600 µM
Protocol: Inhibition of thioredoxin peroxidase activity was assayed using thioredoxin peroxidase assay in a 96-well plate reader essentially as described by Kim et al. [48] and Theys et al. [49]. Briefly, the spectrometric assay was performed in a 160 µl reaction mixture containing 500 µM NADPH, 4 µM recombinant S.cerevisiae thioredoxin, 2 µM recombinant S.cervisiae thioredoxin reductase, 0.6 µM human recombinant PRDX5 and increasing concentrations (0 to 6 mM) of fragments (from stock solutions in DMSO) in PBS 0.1M (pH 7.4). The reaction was initiated by adding H2O2 at the final concentration of 100 µM. NADPH oxidation was monitored by following absorbance at 340 nm for 30 min at 37°C. The initial rate of reaction was calculated using the linear portion of the curve and was expressed as the amount of NADPH oxidized per min. The IC50 was calculated with the percentage of remaining thioredoxin peroxidase activity. Measurements were performed in quadruplicates.

STD factor (f STD) (human PRDX5 [1]) | solubility in water [3] | Compound | also measured
– | – | Cc1ccc(O)c(O)c1 [D3, 4-methyl-catechol] | f STD (human PRDX5 [1]): 66%
100 | – | Oc1ccccc1Cc1ccccc1O [F090, bis-(2-hydroxyphenyl)-methan] | Kd (human PRDX5 [2]; STD titration, reduced PRDX5, read-out: dissociation constant KD): 1200 ± 400 µM; ligand efficiency (human PRDX5 [2]; free energy of binding divided by the number of heavy atoms): 1.76 kJ/mol; solubility in the assay [3]: insufficient solubility
32 | – | Oc1ccccc1O [F152, catechol] | f STD (human PRDX5 [1]): 32%
69 | too low | O=C(c1ccccc1)c1ccc(O)cc1O [F082] | –
76 | too low | Oc1ccc(-c2ccc(O)cc2)cc1 [F093] | solubility in the assay [3]: insufficient solubility
42 | too low | Oc1cccc2[nH]c3ccccc3c12 [F069] | –

Compound | STD factor (f STD) (human PRDX5 [1]) | solubility in water [3] | also measured
Oc1ccccc1-c1ccccc1 [F012] | 88 | too low | inhibitory activity on thioredoxin peroxidase activity (human PRDX5 [4]): no inhibitory activity

Source: publication PMC2840032, “Discovery of Fragment Molecules That Bind the Human Peroxiredoxin 5 Active Site” (PLoS ONE, 2010)
